Laboratory results as given in patent US12630580B2, “5′-O-phenylacetyluridine and therapeutic use” (PHARMA CINQ, LLC, priority 2020, dated 2026).

Experiments:
[1] = Plasma concentrations of uridine, PB and metabolites after oral administration (comparative bioavailability)
Description: The delivery of phenylacetate into the bloodstream after oral administration of PAU was also assessed. Sodium phenylbutyrate is used in clinical practice as an ammonia scavenger in hepatic encephalopathy or genetic nitrogen cycle disorders, or as a chaperone or histone deacetylase inhibitor. It is predominantly metabolized to phenylacetate via beta-oxidation in the liver, and phenylacetate mediates the therapeutic benefits of phenylbutyrate. PAU was administered orally at a dose equimolar to 200 mg/kg sodium phenylbutyrate. Female BALB/c mice (n=3-5 group) were given test compounds p.o. and after 30 minutes were retro-orbitally bled to obtain plasma. […] An equimolar dose or uridine was used as a comparator for efficiency of delivery of uridine into the circulation by oral administration of PAU.

[2] = system: TNFα; assay: LPS-induced elevation of plasma TNFα (inflammation model); format: in vivo; settings: female BALB/c mice; for TNF α ± SEM: plasma one hour after LPS
Description: Injection of bacterial cell wall constituent lipopolysaccharide (LPS) has been used as a model of inflammation. The inflammatory cascade can lead to cellular and organ damage when unchecked.
Female BALB/c mice […] of age (n=7-8/group) were treated with Vehicle (0.75% HPMC) or PAU p.o. and 30 minutes later LPS (2.5 mg/kg i.p.) was administered. One hour after LPS, mice were sacrificed and blood was collected for measurement of plasma TNFα.

[3] = female BALB/c mice, p.o., dose equimolar to 200 mg/kg sodium phenylbutyrate, plasma 30 minutes after dosing

Row | Compound | Elevation of plasma uridine and uracil compared with equimolar dose of oral uridine ([1]; oral, mice) | TNF α ± SEM ([2]; PAU 165 mg/kg p.o. 30 minutes before LPS 2.5 mg/kg i.p., Vehicle 15,981 ± 2,951) | TNF α ± SEM ([2]; PAU 331 mg/kg p.o. 30 minutes before LPS 2.5 mg/kg i.p., p < .05 compared to Vehicle (15,981 ± 2,951)) | Anti-inflammatory effect in the LPS-induced elevation of plasma TNFα ([2]; p.o.) | Plasma concentration of PA (phenylacetate) [1, 3] | Plasma concentration of PB (phenylbutyrate) [1, 3]
1 | O=C(Cc1ccccc1)OC[C@H]1O[C@@H](n2ccc(=O)[nH]c2=O)[C@H](O)[C@@H]1O [PAU, 5′-O-Phenylacetyluridine] | elevated plasma uridine and uracil better | 10,068 ± 2,583 pg/ml | 7,034 ± 1,236 + pg/ml | significant anti-inflammatory effect |  | 
2 | sodium phenylbutyrate [NaPB] |  |  |  |  | 401 µM | 26 µM
